Test [1] in a line: Cytotoxicity against mouse NIH/3T3 cells incubated for 24 hrs by CCK8 assay. The format is cell-based. The following applies: NIH3T3, 24 h. (In general: Tetrazolium assays rely on reduction of a dye to a coloured formazan, in cell work by metabolically active cells.)
The subject of test [2] is Rattus norvegicus. As to the kind of experiment: Antiinflammatory activity in Sprague-Dawley rat model of LPS-induced sepsis assessed as ALT level at 5 mg/kg/day dosed through gastric intubation for 6 days (reference value: 70.3 +/- 7.9 U/L). The format is functional.
For test [3], the system named is Rattus norvegicus. As to the kind of experiment: Antiinflammatory activity in Sprague-Dawley rat model of LPS-induced sepsis assessed as AST level at 5 mg/kg/day dosed through gastric intubation for 6 days (reference value: 148.9 +/- 41.3 U/L). The format is functional.
For test [4], the system named is Rattus norvegicus. As to the kind of experiment: Antiinflammatory activity in Sprague-Dawley rat model of LPS-induced sepsis assessed as hsCRP level at 5 mg/kg/day dosed through gastric intubation for 6 days (reference value: 1.9 +/- 0.3 mg/L). Type of test: functional.
For test [5], the system named is Rattus norvegicus. Briefly: Antiinflammatory activity in Sprague-Dawley rat model of LPS-induced sepsis assessed as MPO level at 5 mg/kg/day dosed through gastric intubation for 6 days (reference value: 4.2 +/- 1.8 […]). Type of test: functional.
The test system of test [6] is Rattus norvegicus. As to the kind of experiment: Antiinflammatory activity in Sprague-Dawley rat model of LPS-induced sepsis assessed as nitric oxide level at 5 mg/kg/day dosed through gastric intubation for 6 days by cadmium reduction method (reference value: 28.6 +/- 2.4 umol/L). The format is functional.
Test [7] concerns Rattus norvegicus. As to the kind of experiment: Antiinflammatory activity in Sprague-Dawley rat model of LPS-induced sepsis assessed as serum MDA level at 5 mg/kg/day dosed through gastric intubation for 6 days (reference value: 4.7 +/- 2.8 mg/L). The format is functional.
Test [8] concerns the target T1, Prostaglandin G/H synthase 1 (Ovis aries, UniProt P05979).
T1 sequence (P05979 whole entry): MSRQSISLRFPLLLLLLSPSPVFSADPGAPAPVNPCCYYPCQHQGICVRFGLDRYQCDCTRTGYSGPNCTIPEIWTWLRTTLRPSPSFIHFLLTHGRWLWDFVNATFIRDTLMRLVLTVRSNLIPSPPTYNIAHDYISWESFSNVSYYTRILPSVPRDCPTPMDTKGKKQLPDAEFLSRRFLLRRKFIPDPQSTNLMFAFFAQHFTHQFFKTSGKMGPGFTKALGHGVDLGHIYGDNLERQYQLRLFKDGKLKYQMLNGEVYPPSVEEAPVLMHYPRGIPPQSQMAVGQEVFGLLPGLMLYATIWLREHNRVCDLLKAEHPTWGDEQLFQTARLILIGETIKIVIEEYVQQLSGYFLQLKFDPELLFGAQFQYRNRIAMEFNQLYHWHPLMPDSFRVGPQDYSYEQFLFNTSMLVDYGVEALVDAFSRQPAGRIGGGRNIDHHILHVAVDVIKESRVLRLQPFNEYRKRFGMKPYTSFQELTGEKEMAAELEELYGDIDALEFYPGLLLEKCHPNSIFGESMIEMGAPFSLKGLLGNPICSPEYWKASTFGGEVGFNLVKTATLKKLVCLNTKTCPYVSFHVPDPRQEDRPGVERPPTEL
Briefly: Inhibition of ovine COX1 using arachidonic acid substrate incubated for 5 mins by colorimetry.

In brackets after ≈: the same amount, converted by molar mass.

Turning to `COc1ccc2[nH]cc(/C=C/C(=O)c3ccc(S(C)(=O)=O)cc3)c2c1`, the IC50 (commonly the concentration that gives 50% inhibition) in test [1] is 32.3 µg/mL (≈ 90.9 µM); in test [8], 24.2 µM. The Activity with Rattus norvegicus [2] was found to be 60.9 U/L; in the test with Rattus norvegicus [3] it was 93.8 U/L; in the test with Rattus norvegicus [4], 1 mg/L; in the test on Rattus norvegicus [5], 0.6 U/L; with Rattus norvegicus [6], 25.6 µmol/L; in the test with Rattus norvegicus [7], 2.6 nmol/mL.
Turning to `COc1ccc2[nH]cc(/C=C/C(=O)c3ccc(C#N)cc3)c2c1`, the IC50 in test [1] was 20 µg/mL (≈ 66.2 µM); in test [8], above 33.1 µM.
The corresponding values for `CS(=O)(=O)c1ccc(C(=O)/C=C/c2c[nH]c3ccc(Cl)cc23)cc1` are 21 µg/mL (≈ 58.4 µM) and above 27.8 µM.
Taken in the same sequence, the figures for `N#Cc1ccc(C(=O)/C=C/c2c[nH]c3ccc(Cl)cc23)cc1` were 33.3 µg/mL (≈ 109 µM) and above 32.6 µM.
The corresponding values for `CS(=O)(=O)c1ccc(C(=O)/C=C/c2c[nH]c3ccc(Br)cc23)cc1` are 17.3 µg/mL (≈ 42.8 µM) and above 24.7 µM.
For the compound `N#Cc1ccc(C(=O)/C=C/c2c[nH]c3ccc(Br)cc23)cc1`, the figures for the IC50 in test [1] and in test [8] were 51.6 µg/mL (≈ 147 µM) and 23.1 µM, respectively. In addition, the Activity in the test with Rattus norvegicus [2] amounted to 62.4 U/L; in the test on Rattus norvegicus [3], 98.8 U/L; in the test with Rattus norvegicus [4], 0.6 mg/L; with Rattus norvegicus [5], 0.8 U/L; in the test on Rattus norvegicus [6], 26.2 µmol/L; in the test with Rattus norvegicus [7] it was 2.5 nmol/mL.
Consider `Cn1cc(/C=C/C(=O)c2ccc(S(C)(=O)=O)cc2)c2ccccc21`, for which the results for the IC50 in test [1] and in test [8] were 350 µg/mL (≈ 1030 µM) and above 29.5 µM, respectively.
Take `Cn1cc(/C=C/C(=O)c2ccc(C#N)cc2)c2ccccc21`: the half-maximal inhibitory concentration (IC50) in test [1] is 210 µg/mL (≈ 733 µM); in test [8] it was 33.9 µM.
The corresponding values for `CC(=O)Nc1ccc(C(=O)/C=C/c2cn(C)c3ccccc23)cc1` are 96.6 µg/mL (≈ 303 µM) and above 31.4 µM.
As to `COc1ccc2c(c1)c(CC(=O)O)c(C)n2C(=O)c1ccc(Cl)cc1` [INDOMETHACIN], the Activity with Rattus norvegicus [2] stood at 67.6 U/L; with Rattus norvegicus [3], 92.5 U/L; in the test on Rattus norvegicus [4], 1.1 mg/L; in the test on Rattus norvegicus [5] it was 0.6 U/L; in the test on Rattus norvegicus [6] it was 26.2 µmol/L; in the test on Rattus norvegicus [7] it was 2.7 nmol/mL.

Source of the values: ChEMBL document CHEMBL3351673, “Synthesis and evaluation of new indole-based chalcones as potential antiinflammatory agents” (Eur J Med Chem, 2015).
